Counter-ions that a name gives are not always drawn. Like-named read-outs stand apart in the source and are kept apart here.
Tests used:
[1] = molecular target: T1, Metallo-β-lactamase encoded by plasmid pMS350 (Serratia marcescens, UniProt P52699); experiment: β-Lactamase inhibition test (Nitrocefin substrate); type: biochemical, Pseudomonas aeruginosa GN17203; conditions: Nitrocefin 37.5 µg/ml, 30°C for 15 minutes, Zn2+ 100 µM, MOPS buffer
T1 construct: made in house
Procedure: Metallo-β-lactamase encoded by plasmid pMS350 originated from Pseudomonas aeruginosa GN17203 was purified and used for this test. The enzyme previously gave a single protein band on SDS/PAGE (specific activity: 70 U/mg protein). The enzymatic activity (U) was measured by reacting it with 100 µM of imipenem dissolved in 10 mM 3-morpholinopropanesulfonate buffer (pH 7.0) (hereinafter referred to as MOPS buffer) containing 100 µM zinc chloride, and the quantity of enzyme capable of hydrolyzing 1 µM of imipenem per one minute at a reaction temperature of 30°C was defined as 1 U.
As the screening substrate of this test, Nitrocefin®, OXOID) was used. In each well of a 96 well plate, 1 µl of a test agent dissolved in 10 mM MOPS buffer and 25 µl of metallo-β-lactamase preparation (enzymatic activity: 3-6 mU/ml) were mixed, and then 75 µl of 50 µg/ml Nitrocefin® was added and mixed to create a final substrate concentration of 37.5 µg/ml. The enzymic reaction was carried out at 30°C for 15 minutes and followed by measuring the quantity of hydrolyzed Nitrocefin™ at a wavelength of 492 nm by means of a microplate reader. In this screening system, the operation was carried out in the presence of Zn^2+ (100 µM) in order to eliminate the inhibitory effect due to chelating action. […]

male SD rats = experiment: Toxicity test on the central nervous system (administration to the right ventricle of the brain); type: in vivo; conditions: observed thirty minutes
Excerpt: A chronic guide cannula was inserted into the right ventricle of the brain of 7-weeks old male SD rats (n = 5) and immobilized with a dental resin. […] After the administration, behavior of the animal was visually examined in an observing cage for thirty minutes.

[2] = In vivo stability test (TLC bioautography of urine); set-up: species or system rhesus monkey
Procedure: The compound of Example 1 was used as a representative compound, and the compound of Example 139B of Document A was used as a comparative compound. A test agent (10 mg/kg) was intravenously administered to 4-years old male rhesus monkey (body weight 5.48 kg) over a period of 5 minutes. The urine was collected over a period of 0-1 hour and over a period of 1-2 hours, both after the administration. The urine samples were stored at an ice-cooled temperature. A TLC plate (silica gel 60F-254, manufactured by Merck Co.) which had been activated just before use at 120°C for 30 minutes and spotted with 4 µl of each urine sample, was developed with a solvent in a closed vessel (developing solvent: CH3CN/H2O/CH3COOH/25% NH4OH = 45:30:6:2; pH 5.3). After completion of the development, the TLC plate was taken out of the vessel, and dried. An AM-1 medium (manufactured by Difco Co.) containing a test strain (B. subtilis ATCC 12432) was contacted with the silica gel surface of the TLC plate at ambient temperature for 30 minutes. After stripping off the TLC plate, the medium was cultured at 37°C overnight. Rf value of a clear zone formed by the growth inhibition of test strain was determined. As control, the test compound was dissolved in 10 mmol MOPS buffer (pH 7) at the concentration of 250 µg/ml, and 2 µl of this solution was spotted on a TLC plate.

E. coli NIHJ JC2 = experiment: In vitro antibacterial activity, agar plate dilution method (MIC); type: cell-based; conditions: Escherichia coli, read-out: Minimum growth inhibitory concentrations (MIC)
Procedure: (§1) A Mueller Hinton agar (MH agar) was inoculated with a platinum loop quantity (the quantity of inoculated bacterium: 10^6 CFU/ml) of each test bacterial strain which had been cultured overnight in Mueller Hinton broth. The culture medium contained an antibacterial agent at a varied concentration. After a culture at 37°C for 16 hours, the minimum growth inhibitory concentration (MIC: µg/ml) of the compound of this invention was measured. When MRSA was used as the test strain, a medium containing 2% sodium chloride was used as the test medium in accordance with the above-mentioned agar plate dilution method, and the minimum growth inhibitory concentration (MIC: µg/ml) of the compound of this invention was measured under culture conditions of 35°C, 48 hours.

P. aeruginosa IFO-3445 = experiment: as above; type: cell-based; conditions: Pseudomonas aeruginosa, read-out: Minimum growth inhibitory concentrations (MIC)
Procedure: as §1

MRSA BB6294 = experiment: In vitro antibacterial activity, agar plate dilution method (MIC), MRSA conditions; type: cell-based, methicillin-resistant Staphylococcus aureus; conditions: Staphylococcus aureus, read-out: Minimum growth inhibitory concentrations (MIC)
Procedure: as §1

male ICR mice = experiment: Acute toxicity test (single intravenous administration); type: in vivo; conditions: observed over five days
Procedure: The compound of Example 24 was used as a representative compound. According to "Explanation Book for GLP Standard and Toxicity Test Guideline" (supervised by Department of Examination, Bureau of Pharmacy, Ministry of Health and Welfare; published by Yakuji Shimpou-sha), a test compound was diluted with distilled water for injection use until the agent concentration reached 60.75 mg/ml and once administered intravenously to the tail vein of 6-weeks old male ICR mice at an administration rate of 1 ml/min. After the administration, the state of death and the general motility were observed over five days.

Pseudomonas aeruginosa = conditions: especially against Pseudomonas aeruginosa; cited from earlier work
[3] = 400 µg/rat into right ventricle of the brain
[4] = 200 µg/rat into right ventricle of the brain
[5] = mouse, 500 mg/kg intravenously once
[6] = mouse, 1,000 mg/kg intravenously once
[7] = mouse, 1,500 mg/kg intravenously once

T1 sequence (P52699 19-246): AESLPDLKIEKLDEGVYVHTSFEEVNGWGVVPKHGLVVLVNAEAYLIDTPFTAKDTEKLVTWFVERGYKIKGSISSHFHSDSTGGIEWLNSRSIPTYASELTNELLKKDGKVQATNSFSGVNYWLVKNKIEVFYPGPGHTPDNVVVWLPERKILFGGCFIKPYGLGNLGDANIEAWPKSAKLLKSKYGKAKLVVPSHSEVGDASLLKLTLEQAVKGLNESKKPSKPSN

Q: For C=CCOC(=O)N(C)Cc1ccc([C@H]2C[C@H](SC(C)=O)CN2C(=O)OCC=C)cc1 [Compound of Referential. Ex. 1, (2R,4S)-4-Acetylthio-1-allyloxycarbonyl-2-(4-N-allyloxycarbonyl-N-methylaminomethyl)phenylpyrrolidine], which IC50 [1] is on record?
A: The IC50 was < 100 nM.

Q: Which “Number of convulsed cases” value (male SD rats; [3]) does the source give for CNCc1ccc([C@H]2C[C@H](SC3=C(C(=O)O)N4C(=O)[C@H]([C@@H](C)O)[C@H]4[C@H]3C)CN2)cc1.Cl [Example 1, (1R,5S,6S)-2-[(3S,5R)-5-[4-N-methylaminomethylphenyl]-pyrrolidin-3-ylthio]-6-[(R)-1-hydroxyethyl]-1-methyl-1-carbapen-2-em-3-carboxylic acid hydrochloride] here?
A: The value was 0/5.

Q: And the “Number of dead cases” value (male SD rats; [3])?
A: The value was 0/5.

Q: What about the “Rf value, Control” value ([2]; control: test compound in 10 mmol MOPS buffer (pH 7), 250 µg/ml, spotted on TLC plate, clear zone with B. subtilis ATCC 12432) of the same compound?
A: Its value is 0.40.

Q: What about the “Rf value, Accumulated urine during 0-1 hr after administration” value ([2]; rhesus monkey, 10 mg/kg intravenously, urine 0-1 hr, TLC clear zone with B. subtilis ATCC 12432) of the same compound?
A: The value was 0.40.

Q: And the “Rf value, Accumulated urine during 1-2 hrs after administration” value ([2]; rhesus monkey, 10 mg/kg intravenously, urine 1-2 hrs, TLC clear zone with B. subtilis ATCC 12432)?
A: The value was 0.40.

Q: For C[C@H](N)c1ccc([C@H]2C[C@H](SC3=C(C(=O)O)N4C(=O)[C@H]([C@@H](C)O)[C@H]4[C@H]3C)CN2)cc1 [Example 14, (1R,5S,6S)-2-[(3S,5R)-5-[4-[(1S)-aminoethyl]phenyl]-pyrrolidin-3-ylthio]-6-[(R)-1-hydroxyethyl]-1-methyl-1-carbapen-2-em-3-carboxylic acid hydrochloride], which MIC (E. coli NIHJ JC2; NIHJJC2, 16 h) is on record?
A: Its MIC is 0.025 µg/mL.

Q: What about the MIC (P. aeruginosa IFO-3445; IFO3445, 16 h) of the same compound?
A: The MIC was 0.1 µg/mL.

Q: What about the MIC (MRSA BB6294; MRSA, 48 h) of the same compound?
A: Its MIC is 3.13 µg/mL.

Q: What about the “Number of convulsed cases” value (male SD rats; [4]) of the same compound?
A: Its value is 0/5.

Q: And the “Number of dead cases” value (male SD rats; [4])?
A: Its value is 0/5.

Q: Which MIC (E. coli NIHJ JC2; NIHJJC2, 16 h) does the source give for C[C@@H](N)c1ccc([C@H]2C[C@H](SC3=C(C(=O)O)N4C(=O)[C@H]([C@@H](C)O)[C@H]4[C@H]3C)CN2)cc1 [Example 15, (1R,5S,6S)-2-[(3S,5R)-5-[4-[(1R)-aminoethyl]phenyl]-pyrrolidin-3-ylthio]-6-[(R)-1-hydroxyethyl]-1-methyl-1-carbapen-2-em-3-carboxylic acid hydrochloride] here?
A: Its MIC is 0.025 µg/mL.

Q: And the MIC (P. aeruginosa IFO-3445; IFO3445, 16 h)?
A: The MIC was 0.2 µg/mL.

Q: And the MIC (MRSA BB6294; MRSA, 48 h)?
A: Its MIC is 3.13 µg/mL.

Q: And the “Number of convulsed cases” value (male SD rats; [4])?
A: Its value is 0/5.

Q: What about the “Number of dead cases” value (male SD rats; [4]) of the same compound?
A: Its value is 0/5.

Q: For C[C@@H](O)[C@H]1C(=O)N2C(C(=O)O)=C(S[C@@H]3CN[C@@H](c4ccc(C(N)CC(N)=O)cc4)C3)[C@H](C)[C@H]12.Cl (stereo partly drawn) [Example 24, (1R,5S,6S)-2-[(3S,5R)-5-[4-(1-amino-2-carbamoylethyl)-phenyl]pyrrolidin-3-ylthio]-6-[(R)-1-hydroxyethyl]-1-methyl-1-carbapen-2-em-3-carboxylic acid hydrochloride], which “Motility and general symptoms” value (male ICR mice; [5]) is on record?
A: Its value is “No abnormality”.

Q: And the “Number of alive animals” value (male ICR mice; [5])?
A: Its value is 2/2.

Q: And the “Motility and general symptoms” value (male ICR mice; [6])?
A: The value was “No abnormality”.

Q: And the “Number of alive animals” value (male ICR mice; [6])?
A: Its value is 5/5.

Q: And the “Motility and general symptoms” value (male ICR mice; [7])?
A: The value was “No abnormality”.

Q: And the “Number of alive animals” value (male ICR mice; [7])?
A: Its value is 5/5.

Q: Which MIC (E. coli NIHJ JC2; NIHJJC2, E. coli NIHJ JC2, MH agar, 10^6 CFU/ml, 37°C for 16 hours) does the source give for C[C@@H](O)[C@H]1C(=O)N2C(C(=O)O)=C(S[C@@H]3CN[C@@H](c4csc(CN)c4)C3)[C@H](C)[C@H]12.Cl [Example 32, (1R,5S,6S)-2-[(3S,5R)-5-(2-aminomethyl-4-thienyl)-pyrrolidin-3-ylthio]-6-[(R)-1-hydroxyethyl]-1-methyl-1-carbapen-2-em-3-carboxylic acid hydrochloride] here?
A: Its MIC is 0.025 µg/mL.

Q: What about the MIC (P. aeruginosa IFO-3445; IFO3445, P. aeruginosa IFO-3445, MH agar, 10^6 CFU/ml, 37°C for 16 hours) of the same compound?
A: Its MIC is 0.39 µg/mL.

Q: And the MIC (MRSA BB6294; MRSA BB6294, medium containing 2% sodium chloride, 35°C, 48 hours)?
A: Its MIC is 3.13 µg/mL.

Q: With C[C@@H](O)[C@H]1C(=O)N2C(C(=O)O)=C(SCCNC=N)C[C@H]12.O [Imipenem, (5R,6S)-3-[2-(formimidoylamino)-ethylthio]-6-[(R)-1-hydroxyethyl]-7-oxo-1-azabicyclo[3.2.0]hepta-2-ene-2-carboxylic acid monohydrate] as the compound, how does the “enhanced antibacterial activity compared to the parent antibiotic, thienamycin” value (Pseudomonas aeruginosa) read?
A: Its value is 2-4 times.

From patent publication EP1048669A1, “CARBAPENEM DERIVATIVES” (priority 1997, dated 1999)
